Patent US11306078B2, “Piperidine CXCR7 receptor modulators” (IDORSIA PHARMACEUTICALS LTD., priority 2016, dated 2022)

target: human chemokine receptor CXCR7 (Homo sapiens (Human), UniProt P25106); assay: Tango CXCR7-bla U2OS beta-arrestin recruitment assay (beta-lactamase reporter, FRET), antagonism of CXCL12/SDF1-α; assay type: cell-based; settings: antagonistic effect on CXCR7; Tango CXCR7-bla U2OS cells, CXCL12/SDF1-α at its EC80;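 note: compounds preincubated 15 min before CXCL12 addition, then 22 h at 37 °C, FRET emission ratio read with CCF4-AM substrate after 2 h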
Sequence (P25106 whole entry): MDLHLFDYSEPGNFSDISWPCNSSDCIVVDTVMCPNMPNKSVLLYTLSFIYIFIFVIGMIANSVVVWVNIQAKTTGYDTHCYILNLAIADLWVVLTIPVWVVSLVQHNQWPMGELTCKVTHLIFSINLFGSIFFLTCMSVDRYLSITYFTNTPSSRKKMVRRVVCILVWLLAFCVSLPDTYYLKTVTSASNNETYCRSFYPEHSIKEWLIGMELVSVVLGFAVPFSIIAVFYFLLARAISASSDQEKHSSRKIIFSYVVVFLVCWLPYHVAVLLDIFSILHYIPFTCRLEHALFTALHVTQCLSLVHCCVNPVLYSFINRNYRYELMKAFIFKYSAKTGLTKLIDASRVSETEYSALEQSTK

Row | IC50 | SMILES
1 | 92 nM | C[C@@H](NC(=O)[C@@H]1CN(C2CCCCC2)CC[C@H]1NC(=O)c1noc(-c2ccc(F)cc2F)n1)c1ccccn1 (relative stereo) [Example 1.156, (3R*,4R*)-1-Cyclohexyl-4-{[5-(2,4-difluoro-phenyl)-[1,2,4]oxadiazole-3-carbonyl]-amino}-piperidine-3-carboxylic acid ((R)-1-pyridin-2-yl-ethyl)-amide]
2 | 131 nM | C[C@@H](NC(=O)[C@@H]1CN(C2CCCC2)CC[C@H]1NC(=O)c1noc(-c2ccc(F)cc2F)n1)c1ccccn1 (relative stereo) [Example 1.157, (3R*,4R*)-1-Cyclopentyl-4-{[5-(2,4-difluoro-phenyl)-[1,2,4]oxadiazole-3-carbonyl]-amino}-piperidine-3-carboxylic acid ((R)-1-pyridin-2-yl-ethyl)-amide]
3 | 82 nM | C[C@@H](NC(=O)[C@@H]1CN(CC2CC2)CC[C@H]1NC(=O)c1noc(-c2ccc(F)cc2F)n1)c1ccccn1 (relative stereo) [Example 1.158, (3R*,4R*)-1-Cyclopropylmethyl-4-{[5-(2,4-difluoro-phenyl)-[1,2,4]oxadiazole-3-carbonyl]-amino}-piperidine-3-carboxylic acid ((R)-1-pyridin-2-yl-ethyl)-amide]
4 | 818 nM | C[C@@H](NC(=O)[C@@H]1CN(CC2CC2)CC[C@H]1NC(=O)c1cc(-c2ccc(F)cc2F)no1)c1cnccn1 (relative stereo) [Example 1.159, (3R*,4R*)-1-Cyclopropylmethyl-4-{[3-(2,4-difluoro-phenyl)-isoxazole-5-carbonyl]-amino}-piperidine-3-carboxylic acid ((R)-1-pyrazin-2-yl-ethyl)-amide]
5 | 105 nM | C[C@@H](NC(=O)[C@@H]1CN(CC2CC2)CC[C@H]1NC(=O)c1cc(-c2ccc(F)cc2F)no1)C1CCC1 (relative stereo) [Example 1.161, (3R*,4R*)-1-Cyclopropylmethyl-4-{[3-(2,4-difluoro-phenyl)-isoxazole-5-carbonyl]-amino}-piperidine-3-carboxylic acid ((R)-1-cyclobutyl-ethyl)-amide]
6 | 638 nM | C[C@@H]1CCC[C@H]1N1CC[C@@H](NC(=O)c2cc(-c3ccc(F)cc3F)no2)[C@H](C(=O)N[C@H](C)C2CCC2)C1 (relative stereo) [Example 1.162, (3R*,4R*)-4-{[3-(2,4-Difluoro-phenyl)-isoxazole-5-carbonyl]-amino}-1-((1RS,2RS)-2-Methyl-cyclopentyl)-piperidine-3-carboxylic acid ((R)-1-cyclobutyl-ethyl)-amide]
7 | 728 nM | C[C@@H]1CCC[C@H]1N1CC[C@@H](NC(=O)c2cn(-c3ccc(F)cc3F)nn2)[C@H](C(=O)NC2(c3ccccn3)CC2)C1 (relative stereo) [Example 1.168, (3R*,4R*)-4-{[1-(2,4-Difluoro-phenyl)-1H-[1,2,3]triazole-4-carbonyl]-amino}-1-((1RS,2RS)-2-Methyl-cyclopentyl)-piperidine-3-carboxylic acid (1-pyridin-2-yl-cyclopropyl)-amide]
8 | 72 nM | C[C@@H]1CCC[C@H]1N1CC[C@@H](NC(=O)c2cc(-c3c(F)cc(F)cc3F)on2)[C@H](C(=O)NC2(c3ccccn3)CC2)C1 (relative stereo) [Example 1.172, (3R*,4R*)-1-((1RS,2RS)-2-Methyl-cyclopentyl)-4-{[5-(2,4,6-trifluoro-phenyl)-isoxazole-3-carbonyl]-amino}-piperidine-3-carboxylic acid (1-pyridin-2-yl-cyclopropyl)-amide]
9 | 673 nM | C[C@@H]1CCC[C@H]1N1CC[C@@H](NC(=O)c2cc(-c3ccc(F)cc3F)no2)[C@H](C(=O)NC2(c3ccccn3)CC2)C1 (relative stereo) [Example 1.175, (3R*,4R*)-4-{[3-(2,4-Difluoro-phenyl)-isoxazole-5-carbonyl]-amino}-1-((1RS,2RS)-2-Methyl-cyclopentyl)-piperidine-3-carboxylic acid (1-pyridin-2-yl-cyclopropyl)-amide]
10 | 368 nM | C[C@@H](NC(=O)[C@]1(C)CN(C2CCCCC2)CC[C@H]1NC(=O)c1cc(-c2ccc(F)cc2F)on1)c1ccccn1 (relative stereo) [Example 5.001, (3R*,4R*)-1-Cyclohexyl-4-{[5-(2,4-difluoro-phenyl)-isoxazole-3-carbonyl]-amino}-3-methyl-piperidine-3-carboxylic Acid ((R)-1-pyridin-2-yl-ethyl)-amide]

The next lines start with the molecule.

Row | SMILES | IC50
11 | O=C(N[C@@H]1CCN(C2CCCCC2)C[C@H]1C(=O)N[C@H]1C[C@@H]1c1ccccc1)c1cc(-c2c(F)cc(F)cc2F)on1 (single isomer, unassigned) [Example 1.046a] | 474 nM
12 | CN(C)C(=O)[C@@H]1CN(C2CCCCC2)CC[C@H]1NC(=O)c1cn(-c2ccc(F)cc2F)nn1 (single isomer, unassigned) [Example 1.095a, (3R,4R)-1-Cyclohexyl-4-{[1-(2,4-difluoro-phenyl)-1H-[1,2,3]triazole-4-carbonyl]-amino}-piperidine-3-carboxylic acid dimethylamide or (3S,4S)-1-Cyclohexyl-4-{[1-(2,4-difluoro-phenyl)-1H-[1,2,3]triazole-4-carbonyl]-amino}-piperidine-3-carboxylic acid dimethylamide] | 129 nM
13 | COCC(C)(C)NC(=O)[C@@H]1CN(C2CCCCC2)CC[C@H]1NC(=O)c1cc(-c2c(F)cc(F)cc2F)on1 (single isomer, unassigned) [Example 1.111a, (3R*,4R*)-1-Cyclohexyl-4-{[5-(2,4,6-trifluoro-phenyl)-isoxazole-3-carbonyl]-amino}-piperidine-3-carboxylic acid (2-methoxy-1,1-dimethyl-ethyl)-amide] | 944 nM
14 | COCC(C)(C)NC(=O)[C@@H]1CN(C2CCCCC2)CC[C@H]1NC(=O)c1cc(-c2c(F)cc(F)cc2F)on1 (single isomer, unassigned) [Example 1.111b, (3R*,4R*)-1-Cyclohexyl-4-{[5-(2,4,6-trifluoro-phenyl)-isoxazole-3-carbonyl]-amino}-piperidine-3-carboxylic acid (2-methoxy-1,1-dimethyl-ethyl)-amide] | 114 nM
15 | COCC(C)(C)NC(=O)[C@@H]1CN(CC2CC2)CC[C@H]1NC(=O)c1cc(-c2c(F)cc(F)cc2F)on1 (single isomer, unassigned) [Example 1.113a, (3R*,4R*)-1-Cyclopropylmethyl-4-{[5-(2,4,6-trifluoro-phenyl)-isoxazole-3-carbonyl]-amino}-piperidine-3-carboxylic acid (2-methoxy-1,1-dimethyl-ethyl)-amide] | 561 nM
16 | COCC(C)(C)NC(=O)[C@@H]1CN(CC2CC2)CC[C@H]1NC(=O)c1cc(-c2c(F)cc(F)cc2F)on1 (single isomer, unassigned) [Example 1.113b, (3R*,4R*)-1-Cyclopropylmethyl-4-{[5-(2,4,6-trifluoro-phenyl)-isoxazole-3-carbonyl]-amino}-piperidine-3-carboxylic acid (2-methoxy-1,1-dimethyl-ethyl)-amide] | 48 nM
17 | C[C@@H](NC(=O)[C@H]1CN(C2CCCCC2)CC[C@@H]1NC(=O)c1cn(-c2ccc(F)cc2F)nn1)c1ccccn1 (single isomer, unassigned) [Example 1.117a, (3S,4S)-1-Cyclohexyl-4-{[1-(2,4-difluoro-phenyl)-1H-[1,2,3]triazole-4-carbonyl]-amino}-piperidine-3-carboxylic acid ((R)-1-pyridin-2-yl-ethyl)-amide or (3R,4R)-1-Cyclohexyl-4-{[1-(2,4-difluoro-phenyl)-1H-[1,2,3]triazole-4-carbonyl]-amino}-piperidine-3-carboxylic acid ((R)-1-pyridin-2-yl-ethyl)-amide] | 39 nM
18 | C[C@@H](NC(=O)[C@H]1CN(C2CCCC2)CC[C@@H]1NC(=O)c1cn(-c2ccc(F)cc2F)nn1)c1ccccn1 (single isomer, unassigned) [Example 1.118a, (3S,4S)-1-Cyclopentyl-4-{[1-(2,4-difluoro-phenyl)-1H-[1,2,3]triazole-4-carbonyl]-amino}-piperidine-3-carboxylic acid ((R)-1-pyridin-2-yl-ethyl)-amide or (3R,4R)-1-Cyclopentyl-4-{[1-(2,4-difluoro-phenyl)-1H-[1,2,3]triazole-4-carbonyl]-amino}-piperidine-3-carboxylic acid ((R)-1-pyridin-2-yl-ethyl)-amide] | 75 nM
19 | C[C@@H](NC(=O)[C@@H]1CN(C2CCCCC2)CC[C@H]1NC(=O)c1cc(-c2c(F)cc(F)cc2F)on1)c1ccccn1 (single isomer, unassigned) [Example 1.121a, (3R*,4R*)-1-Cyclohexyl-4-{[5-(2,4,6-trifluoro-phenyl)-isoxazole-3-carbonyl]-amino}-piperidine-3-carboxylic acid ((R)-1-pyridin-2-yl-ethyl)-amide] | 742 nM
20 | C[C@@H](NC(=O)[C@@H]1CN(C2CCCCC2)CC[C@H]1NC(=O)c1cc(-c2c(F)cc(F)cc2F)on1)c1ccccn1 (single isomer, unassigned) [Example 1.121b, (3R*,4R*)-1-Cyclohexyl-4-{[5-(2,4,6-trifluoro-phenyl)-isoxazole-3-carbonyl]-amino}-piperidine-3-carboxylic acid ((R)-1-pyridin-2-yl-ethyl)-amide] | 2 nM
21 | C[C@@H](NC(=O)[C@@H]1CN(C2CCCC2)CC[C@H]1NC(=O)c1cc(-c2c(F)cc(F)cc2F)on1)c1ccccn1 (single isomer, unassigned) [Example 1.122a, (3R*,4R*)-1-Cyclopentyl-4-{[5-(2,4,6-trifluoro-phenyl)-isoxazole-3-carbonyl]-amino}-piperidine-3-carboxylic acid ((R)-1-pyridin-2-yl-ethyl)-amide] | 525 nM
22 | C[C@@H](NC(=O)[C@@H]1CN(C2CCCC2)CC[C@H]1NC(=O)c1cc(-c2c(F)cc(F)cc2F)on1)c1ccccn1 (single isomer, unassigned) [Example 1.122b, (3R*,4R*)-1-Cyclopentyl-4-{[5-(2,4,6-trifluoro-phenyl)-isoxazole-3-carbonyl]-amino}-piperidine-3-carboxylic acid ((R)-1-pyridin-2-yl-ethyl)-amide] | 17 nM
